Experimental data taken from patent publication US11141491B2, “PH-sensitive lipid nanoparticles for encapsulation of anticancer drugs and microRNA and use thereof” (National Yang-Ming University, priority 2018, dated 2021).

Key:
HCT116 cells [1] = assay: Endocytosis mechanisms for uptake of DiI/Lip-RFKH; assay type: cell-based, human; conditions: 3 h-incubation, endocytosis inhibitor added
[2] = pH-sensitive release (dialysis against PBS); assay type: physicochemical; conditions: both pH 7.4 and pH 6.5, 37° C.
Description: Irinotecan- or miR-loaded formulations were placed in a dialysis bag (1,000-3,500 MWCO) and dialyzed separately against PBS at pH 7.4 and 6.5. At the indicated time, solution was withdrawn from the incubation medium. The irinotecan concentrations were determined by HPLC to calculate the cumulative drug release %.

[3] = Biodistribution of irinotecan in CT26/tk-luc-bearing mice; assay type: in vivo; conditions: UV spectrophotometer
Description: The biodistribution of irinotecan of different formulations in CT26-bearing mice was analyzed by UV spectrophotometer (*statistical significance at P<0.05; **statistical significance at P<0.01; ***statistical significance at P<0.001).

HCT116 cells [4] = assay: Cell viability, sulforhodamine B assay, HCT116; assay type: cell-based, human; conditions: 48 h, SRB
Description: The cytotoxicity of formulations in rat small intestinal epithelial IEC-6 cells and human colorectal cancer HCT116 cells was determined using a sulforhodamine B (SRB) assay. After 48-h incubation with various formulations, the cells were stained with SRB for 10 min. The absorbance at 540 nm was detected with a microplate TECAN reader.

IEC-6 cells = assay: Cell viability, sulforhodamine B assay, IEC-6; assay type: cell-based, rat; conditions: noncancerous IEC-6 cells, 48 h, SRB
[5] = Biochemical tests, H&E staining and TUNEL assay in CT26 tumor-bearing mice; assay type: in vivo; conditions: 48 h after last treatment
Description: Tumor-bearing mice were treated as described above. Blood samples (170 μl) were taken from the orbital sinus of mice 48 h after the final treatment. After harvesting and centrifugation for 15 min, liver, kidney and heart functions were assessed by detecting the serum levels of glutamate pyruvate transaminase (GPT), creatinine (CRE), and creatine kinase-MB (CK-MB) using corresponding activity assay kits (Fujifilm, Tokyo, Japan) and a clinical dry chemistry analyzer (Fuji Dri-Chem 7000V, Fujifilm Corp.). Additionally, the tumors and intestines were fixed in 4% paraformaldehyde overnight, embedded in paraffin, and cut into 5-μm-thick sections for H&E staining, and the histology of these samples was examined using an Olympus microscope.
TUNEL assay was performed to assess in vivo apoptosis in CT26 tumor-bearing mice at 48 h after last treatment of different formulations.^[42] In brief, the samples were frozen and fixed in 4% paraformaldehyde for 20 min. After washing with PBS for 10 min, the samples were immersed on ice for 2 min. After mixing with reaction dispersion (50 μL) according to the manufacture's manual (In Situ Cell Death Detection Kit, Roche, Germany), the section samples were stained with Hoechst in the nuclei for comparison and monitored using CLSM.

[6] = Biodistribution of irinotecan in SAS-luc-bearing nude mice; assay type: in vivo; conditions: UV spectrophotometer
Description: The biodistribution of irinotecan of different formulations in SAS-bearing mice was analyzed with UV spectrophotometer. (*statistical significance at P<0.05; **statistical significance at P<0.01; ***statistical significance at P<0.001).

CT26 tumor = assay: In vivo antitumor efficacy, IVIS and PET/CT imaging, body weight in CT26-bearing mice; conditions: 28 days
Description: Male BALB/c mice at the age of 6 weeks with body weights of 20±2 g were purchased from National Laboratory Animal Center (Taipei, Taiwan) and maintained in an individual ventilation cage system. The animals were ensured free access to sterilized food and water. CT-26 (10^5 cells in 0.1 ml PBS) were injected subcutaneously into the right flank of mice to obtain tumor-bearing BALB/c mice. All processes performed on the animals were in accordance with the National Institutes of Health Guide for the Care and Use of Laboratory Animals and were approved by the National Yang-Ming University Animal Committee.
CT-26 cells (10^5 cells in 0.1 ml PBS) were injected subcutaneously into the right flank of mice to obtain tumor-bearing BALB/c mice. When tumor volume reached approximately 100 mm^3 (equation 4), the mice were randomly assigned to six groups (n=5 for each group). […] Mice were injected intravenously (IV) with Iri at 100 mg/kg and miR-200 at 1.25 mg/kg in different formulations every 7 days for 28 days. Fluorescence images were visualized one day after the final treatment using an IVIS […] (Caliper). […]
Tumor images were monitored using PET/CT. […]
Animal body weight and tumor size were detected every 3 or 4 days for 28 days. Tumor size was measured with a digital caliper and the tumor volume (V) was calculated (equation 4).

Compound | relative fluorescence intensity % of DiI/Lip-RFKH (HCT116 cells [1]) | release within 24 h [2] [%] | biodistribution of irinotecan [3] | cytotoxicity / viability of HCT116 cells (HCT116 cells [4]; HCT116 cells) | cytotoxicity in HCT116 cells (HCT116 cells [4]; irinotecan at 4×10^−6 M) | cytotoxicity to IEC-6 cells (IEC-6 cells) | serum CKMB level [5] | serum CRE level [5] | serum GPT level [5] | hemolysis (rat blood cells) | biodistribution of irinotecan [6] | body weight (CT26 tumor)
CN(C)CCCN1c2ccccc2Sc2ccc(Cl)cc21 [chlorpromazine] | significant decreases |  |  |  |  |  |  |  |  |  |  | 
CCc1c2c(nc3ccc(OC(=O)N4CCC(N5CCCCC5)CC4)cc13)-c1cc3c(c(=O)n1C2)COC(=O)[C@]3(O)CC [irinotecan] |  | 100 | mainly in the liver, kidney, and intestines | concentration-dependent inhibition | ≈ 20% | ≈ 30% | provoked | provoked | provoked | ≈ 10% | majorly in the liver, kidney, and intestines | continuous decrease
poly-L-lysine | significant decreases |  |  |  |  |  |  |  |  |  |  | 
